Experiment: Compound was tested for urinary glucose excretion (mg/24 h) at 100 mg/Kg dose of compound given perorally
Assay type: functional, Rattus norvegicus, Urine
Set-up: unit: mg/24 h

Row | SMILES | Urinary glucose excretion
1 | CC(=O)OC[C@H]1O[C@@H](Oc2cc(C)cc(OC(C)=O)c2C(=O)CCc2ccc3occc3c2)[C@H](O)[C@@H](O)[C@@H]1O | 183
2 | O=C(CCc1ccc2occc2c1)c1c(O)cccc1O[C@@H]1O[C@H](CO)[C@@H](O)[C@H](O)[C@H]1O | 321
3 | CC(=O)Oc1cc(C)cc(O[C@@H]2O[C@H](CO)[C@@H](O)[C@H](OC(C)=O)[C@H]2OC(C)=O)c1C(=O)CCc1ccc2occc2c1 | 1450
4 | O=C(CCc1ccc2occc2c1)c1c(O)c(Cl)cc(Cl)c1O[C@@H]1O[C@H](CO)[C@@H](O)[C@H](O)[C@H]1O | 5
5 | C=CCc1ccc(O[C@@H]2O[C@H](CO)[C@@H](O)[C@H](O)[C@H]2O)c(C(=O)CCc2ccc3occc3c2)c1O | 5
6 | Cc1ccc(O)c(C(=O)CCc2ccc3occc3c2)c1O[C@@H]1O[C@H](CO)[C@@H](O)[C@H](O)[C@H]1O | 5
7 | CC(C)c1cc(O)c(C(=O)CCc2ccc3occc3c2)c(O[C@@H]2O[C@H](CO)[C@@H](O)[C@H](O)[C@H]2O)c1 | 128
8 | COc1cc(O)c(C(=O)CCc2ccc3occc3c2)c(O[C@@H]2O[C@H](CO)[C@@H](O)[C@H](O)[C@H]2O)c1 | 38
9 | CC(=O)O[C@H]1[C@H](Oc2cc(C)cc(O)c2C(=O)CCc2ccc3occc3c2)O[C@H](CO)[C@@H](O)[C@@H]1O | 482
10 | COCC(=O)OC[C@H]1O[C@@H](Oc2cc(C)cc(O)c2C(=O)CCc2ccc3occc3c2)[C@H](O)[C@@H](O)[C@@H]1O | 721
11 | CC(=O)O[C@H]1[C@H](Oc2cc(C)cc(O)c2C(=O)CCc2ccc3occc3c2)O[C@H](CO)[C@@H](O)[C@@H]1OC(C)=O | 349
12 | CC(=O)OC[C@H]1O[C@@H](Oc2cc(C)cc(O)c2C(=O)CCc2ccc3occc3c2)[C@H](O)[C@@H](O)[C@@H]1O | 540
13 | CCc1ccc(O[C@@H]2O[C@H](CO)[C@@H](O)[C@H](O)[C@H]2O)c(C(=O)CCc2ccc3occc3c2)c1O | 1
14 | COC1(C)OC[C@H]2O[C@@H](Oc3cc(C)cc(O)c3C(=O)CCc3ccc4occc4c3)[C@H](O)[C@@H](O)[C@@H]2O1 (some centres undefined) | 729
15 | COC(=O)O[C@H]1[C@H](O)[C@@H](O)[C@H](Oc2cc(C)cc(O)c2C(=O)CCc2ccc3occc3c2)O[C@@H]1CO | 1407
16 | COCCOC(=O)OC[C@H]1O[C@@H](Oc2cc(C)cc(O)c2C(=O)CCc2ccc3occc3c2)[C@H](O)[C@@H](O)[C@@H]1O | 817
17 | Cc1cc(O)c(C(=O)CCc2ccc3occc3c2)c(O[C@@H]2O[C@H](COC(=O)OC(C)C)[C@@H](O)[C@H](O)[C@H]2O)c1 | 980
18 | O=C(CCc1ccc2occc2c1)c1c(O)cc(Cl)cc1O[C@@H]1O[C@H](CO)[C@@H](O)[C@H](O)[C@H]1O | 8
19 | O=C(CCc1ccc2occc2c1)c1c(O)cc(O)cc1O[C@@H]1O[C@H](CO)[C@@H](O)[C@H](O)[C@H]1O | 38
20 | CCOC(=O)OC[C@H]1O[C@@H](Oc2cc(C)cc(O)c2C(=O)CCc2ccc3occc3c2)[C@H](O)[C@@H](O)[C@@H]1O | 805
21 | CCCc1cc(O)c(C(=O)CCc2ccc3occc3c2)c(O[C@@H]2O[C@H](CO)[C@@H](O)[C@H](O)[C@H]2O)c1 | 27
22 | CCc1cc(O)c(C(=O)CCc2ccc3occc3c2)c(O[C@@H]2O[C@H](CO)[C@@H](O)[C@H](O)[C@H]2O)c1 | 864
23 | Cc1cc(O)c(C(=O)CCc2ccc3occc3c2)c(O[C@@H]2O[C@H](CO)[C@@H](O)[C@H](O)[C@H]2O)c1 | 935
24 | COC(=O)OC[C@H]1O[C@@H](Oc2cc(C)cc(O)c2C(=O)CCc2ccc3occc3c2)[C@H](O)[C@@H](O)[C@@H]1O | 1192

Source: ChEMBL document CHEMBL1132546, “Na(+)-glucose cotransporter (SGLT) inhibitors as antidiabetic agents. 4. Synthesis and pharmacological properties of 4'-dehydroxyphlorizin derivatives substituted on the B ring” (1999)
